Laboratory results from US9695155B2, “Herbicidal substituted pyrimidinyloxy benzene compounds” (E. I. DU PONT DE NEMOURS AND COMPANY, priority 2013, dated 2017).

Columns and labels:
Experiment in all cases: Test C preemergence
blackgrass = format: in vivo, Alopecurus myosuroides; conditions: for Blackgrass plant response rating: preemergence; for Plant response rating, Blackgrass: Preemergence, 62 g ai/ha, scale 0 to 100, 0 no effect, 100 complete control
Method in brief: (§1)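 Greenhouse herbicide screen. Pre: seeded loam/sand, sprayed at planting. Post: 1–4 leaf plants (2–18 cm) in peat-based mix. Formulation: solvent mixture + surfactant, non-phytotoxic. Readout: visual % control vs untreated, 13–15 d; dash = not tested.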

yellow nutsedge = format: in vivo, Cyperus esculentus; conditions: for Nutsedge, Yellow plant response rating: preemergence; for Plant response rating, Nutsedge, Yellow: Preemergence, 62 g ai/ha, scale 0 to 100, 0 no effect, 100 complete control
Method in brief: as §1

giant foxtail = format: in vivo, Setaria faberii; conditions: for Foxtail, Giant plant response rating: preemergence; for Plant response rating, Foxtail, Giant: Preemergence, 62 g ai/ha, scale 0 to 100, 0 no effect, 100 complete control
Method in brief: as §1

lambsquarters = format: in vivo, Chenopodium album; conditions: for Lambsquarters plant response rating: preemergence; for Plant response rating, Lambsquarters: Preemergence, 62 g ai/ha, scale 0 to 100, 0 no effect, 100 complete control
Method in brief: as §1

waterhemp = format: in vivo, Amaranthus rudis; conditions: for Waterhemp plant response rating: preemergence; for Plant response rating, Waterhemp: Preemergence, 62 g ai/ha, scale 0 to 100, 0 no effect, 100 complete control
Method in brief: as §1

johnsongrass = format: in vivo, Sorghum halepense; conditions: for Johnsongrass plant response rating: preemergence; for Plant response rating, Johnsongrass: Preemergence, 62 g ai/ha, scale 0 to 100, 0 no effect, 100 complete control
Method in brief: as §1

oilseed rape = format: in vivo, Brassica napus; conditions: for Oilseed Rape plant response rating: preemergence; for Plant response rating, Oilseed Rape: Preemergence, 62 g ai/ha, scale 0 to 100, 0 no effect, 100 complete control
Method in brief: as §1

velvetleaf = format: in vivo, Abutilon theophrasti; conditions: for Velvetleaf plant response rating: preemergence; for Plant response rating, Velvetleaf: Preemergence, 62 g ai/ha, scale 0 to 100, 0 no effect, 100 complete control
Method in brief: as §1

Italian ryegrass = format: in vivo, Lolium multiflorum; conditions: for Ryegrass, Italian plant response rating: preemergence; for Plant response rating, Ryegrass, Italian: Preemergence, 62 g ai/ha, scale 0 to 100, 0 no effect, 100 complete control
Method in brief: as §1

large (Lg) crabgrass = format: in vivo, Digitaria sanguinalis; conditions: for Crabgrass, Large plant response rating: preemergence; for Plant response rating, Crabgrass, Large: Preemergence, 62 g ai/ha, scale 0 to 100, 0 no effect, 100 complete control
Method in brief: as §1

barnyardgrass = format: in vivo, Echinochloa crus-galli; conditions: for Barnyardgrass plant response rating: preemergence; for Plant response rating, Barnyardgrass: Preemergence, 62 g ai/ha, scale 0 to 100, 0 no effect, 100 complete control
Method in brief: as §1

pigweed = format: in vivo, Amaranthus retroflexus; conditions: for Pigweed plant response rating: preemergence; for Plant response rating, Pigweed: Preemergence, 62 g ai/ha, scale 0 to 100, 0 no effect, 100 complete control
Method in brief: as §1

morningglory = format: in vivo, Ipomoea coccinea; conditions: for Morningglory plant response rating: preemergence; for Plant response rating, Morningglory: Preemergence, 62 g ai/ha, scale 0 to 100, 0 no effect, 100 complete control
Method in brief: as §1

soybean = format: in vivo, Glycine max; conditions: for Soybean plant response rating: preemergence; for Plant response rating, Soybean: Preemergence, 62 g ai/ha, scale 0 to 100, 0 no effect, 100 complete control
Method in brief: as §1

[1] = 16 g ai/ha, scale 0 to 100 (0 no effect, 100 complete control)
[2] = 125 g ai/ha, scale 0 (no effect) to 100 (complete control)
[3] = 250 g ai/ha, scale 0 (no effect) to 100 (complete control)

**Q.** `Cc1cnc(Oc2cccc(C#N)c2-n2cc(C(F)(F)F)cn2)nc1` [Compound 180] was tested. Which “Blackgrass plant response rating” value (blackgrass; [1]) did it give?
**A.** 20

**Q.** What about the “Blackgrass plant response rating” value (blackgrass; [2]) of the same compound?
**A.** 90

**Q.** What about the “Plant response rating, Blackgrass” value (blackgrass) of the same compound?
**A.** 90

**Q.** And the “Nutsedge, Yellow plant response rating” value (yellow nutsedge; [1])?
**A.** 5

**Q.** What about the “Nutsedge, Yellow plant response rating” value (yellow nutsedge; [2]) of the same compound?
**A.** 85

**Q.** What about the “Plant response rating, Nutsedge, Yellow” value (yellow nutsedge) of the same compound?
**A.** 65

**Q.** What about the “Foxtail, Giant plant response rating” value (giant foxtail; [1]) of the same compound?
**A.** 90

**Q.** And the “Foxtail, Giant plant response rating” value (giant foxtail; [2])?
**A.** 100

**Q.** And the “Plant response rating, Foxtail, Giant” value (giant foxtail)?
**A.** 100

**Q.** And the “Lambsquarters plant response rating” value (lambsquarters; [1])?
**A.** 85

**Q.** What about the “Lambsquarters plant response rating” value (lambsquarters; [2]) of the same compound?
**A.** 100

**Q.** What about the “Plant response rating, Lambsquarters” value (lambsquarters) of the same compound?
**A.** 100

**Q.** What about the “Waterhemp plant response rating” value (waterhemp; [1]) of the same compound?
**A.** 90

**Q.** And the “Waterhemp plant response rating” value (waterhemp; [2])?
**A.** 100

**Q.** What about the “Plant response rating, Waterhemp” value (waterhemp) of the same compound?
**A.** 100

**Q.** What about the “Johnsongrass plant response rating” value (johnsongrass; [1]) of the same compound?
**A.** 0

**Q.** And the “Johnsongrass plant response rating” value (johnsongrass; [2])?
**A.** 98

**Q.** What about the “Plant response rating, Johnsongrass” value (johnsongrass) of the same compound?
**A.** 75

**Q.** What about the “Oilseed Rape plant response rating” value (oilseed rape; [1]) of the same compound?
**A.** 55

**Q.** What about the “Oilseed Rape plant response rating” value (oilseed rape; [2]) of the same compound?
**A.** 100

**Q.** And the “Plant response rating, Oilseed Rape” value (oilseed rape)?
**A.** 100

**Q.** What about the “Velvetleaf plant response rating” value (velvetleaf; [1]) of the same compound?
**A.** 75

**Q.** What about the “Velvetleaf plant response rating” value (velvetleaf; [2]) of the same compound?
**A.** 100

**Q.** What about the “Plant response rating, Velvetleaf” value (velvetleaf) of the same compound?
**A.** 100

**Q.** What about the “Ryegrass, Italian plant response rating” value (Italian ryegrass; [1]) of the same compound?
**A.** 5

**Q.** What about the “Ryegrass, Italian plant response rating” value (Italian ryegrass; [2]) of the same compound?
**A.** 80

**Q.** And the “Plant response rating, Ryegrass, Italian” value (Italian ryegrass)?
**A.** 50

**Q.** What about the “Crabgrass, Large plant response rating” value (large (Lg) crabgrass; [1]) of the same compound?
**A.** 100

**Q.** What about the “Crabgrass, Large plant response rating” value (large (Lg) crabgrass; [2]) of the same compound?
**A.** 100

**Q.** What about the “Plant response rating, Crabgrass, Large” value (large (Lg) crabgrass) of the same compound?
**A.** 100

**Q.** What about the “Barnyardgrass plant response rating” value (barnyardgrass; [1]) of the same compound?
**A.** 60

**Q.** What about the “Barnyardgrass plant response rating” value (barnyardgrass; [2]) of the same compound?
**A.** 100

**Q.** And the “Plant response rating, Barnyardgrass” value (barnyardgrass)?
**A.** 100

**Q.** What about the “Pigweed plant response rating” value (pigweed; [1]) of the same compound?
**A.** 85

**Q.** And the “Pigweed plant response rating” value (pigweed; [2])?
**A.** 100

**Q.** And the “Plant response rating, Pigweed” value (pigweed)?
**A.** 100

**Q.** What about the “Morningglory plant response rating” value (morningglory; [1]) of the same compound?
**A.** 35

**Q.** What about the “Morningglory plant response rating” value (morningglory; [2]) of the same compound?
**A.** 100

**Q.** What about the “Plant response rating, Morningglory” value (morningglory) of the same compound?
**A.** 100

**Q.** And the “Soybean plant response rating” value (soybean; [1])?
**A.** 90

**Q.** And the “Soybean plant response rating” value (soybean; [2])?
**A.** 98

**Q.** What about the “Plant response rating, Soybean” value (soybean) of the same compound?
**A.** 98

**Q.** Which “Blackgrass plant response rating” value (blackgrass; [2]) does the source give for `N#Cc1cnn(-c2c(C#N)cccc2Oc2ncc(Cl)cn2)c1` [Compound 200] here?
**A.** 98

**Q.** And the “Blackgrass plant response rating” value (blackgrass; [3])?
**A.** 98

**Q.** And the “Plant response rating, Blackgrass” value (blackgrass)?
**A.** 95

**Q.** And the “Nutsedge, Yellow plant response rating” value (yellow nutsedge; [2])?
**A.** 90

**Q.** What about the “Nutsedge, Yellow plant response rating” value (yellow nutsedge; [3]) of the same compound?
**A.** 95

**Q.** What about the “Plant response rating, Nutsedge, Yellow” value (yellow nutsedge) of the same compound?
**A.** 40

**Q.** And the “Foxtail, Giant plant response rating” value (giant foxtail; [2])?
**A.** 100

**Q.** What about the “Foxtail, Giant plant response rating” value (giant foxtail; [3]) of the same compound?
**A.** 100

**Q.** And the “Plant response rating, Foxtail, Giant” value (giant foxtail)?
**A.** 100

**Q.** What about the “Lambsquarters plant response rating” value (lambsquarters; [2]) of the same compound?
**A.** 98

**Q.** What about the “Lambsquarters plant response rating” value (lambsquarters; [3]) of the same compound?
**A.** 98

**Q.** And the “Plant response rating, Lambsquarters” value (lambsquarters)?
**A.** 98

**Q.** What about the “Waterhemp plant response rating” value (waterhemp; [2]) of the same compound?
**A.** 100

**Q.** What about the “Waterhemp plant response rating” value (waterhemp; [3]) of the same compound?
**A.** 100

**Q.** What about the “Plant response rating, Waterhemp” value (waterhemp) of the same compound?
**A.** 100

**Q.** What about the “Johnsongrass plant response rating” value (johnsongrass; [2]) of the same compound?
**A.** 98

**Q.** What about the “Johnsongrass plant response rating” value (johnsongrass; [3]) of the same compound?
**A.** 98

**Q.** And the “Plant response rating, Johnsongrass” value (johnsongrass)?
**A.** 98

**Q.** What about the “Oilseed Rape plant response rating” value (oilseed rape; [2]) of the same compound?
**A.** 98

**Q.** What about the “Oilseed Rape plant response rating” value (oilseed rape; [3]) of the same compound?
**A.** 98

**Q.** And the “Plant response rating, Oilseed Rape” value (oilseed rape)?
**A.** 98

**Q.** What about the “Velvetleaf plant response rating” value (velvetleaf; [2]) of the same compound?
**A.** 100

**Q.** What about the “Velvetleaf plant response rating” value (velvetleaf; [3]) of the same compound?
**A.** 100

**Q.** And the “Plant response rating, Velvetleaf” value (velvetleaf)?
**A.** 100

**Q.** And the “Ryegrass, Italian plant response rating” value (Italian ryegrass; [2])?
**A.** 85

**Q.** What about the “Ryegrass, Italian plant response rating” value (Italian ryegrass; [3]) of the same compound?
**A.** 95

**Q.** What about the “Plant response rating, Ryegrass, Italian” value (Italian ryegrass) of the same compound?
**A.** 70

**Q.** And the “Crabgrass, Large plant response rating” value (large (Lg) crabgrass; [2])?
**A.** 100

**Q.** What about the “Crabgrass, Large plant response rating” value (large (Lg) crabgrass; [3]) of the same compound?
**A.** 100

**Q.** What about the “Plant response rating, Crabgrass, Large” value (large (Lg) crabgrass) of the same compound?
**A.** 100

**Q.** And the “Barnyardgrass plant response rating” value (barnyardgrass; [2])?
**A.** 100

**Q.** What about the “Barnyardgrass plant response rating” value (barnyardgrass; [3]) of the same compound?
**A.** 100

**Q.** What about the “Plant response rating, Barnyardgrass” value (barnyardgrass) of the same compound?
**A.** 100

**Q.** What about the “Pigweed plant response rating” value (pigweed; [2]) of the same compound?
**A.** 100

**Q.** And the “Pigweed plant response rating” value (pigweed; [3])?
**A.** 100

**Q.** And the “Plant response rating, Pigweed” value (pigweed)?
**A.** 100

**Q.** And the “Morningglory plant response rating” value (morningglory; [2])?
**A.** 98

**Q.** And the “Morningglory plant response rating” value (morningglory; [3])?
**A.** 98

**Q.** What about the “Plant response rating, Morningglory” value (morningglory) of the same compound?
**A.** 95

**Q.** And the “Soybean plant response rating” value (soybean; [2])?
**A.** 95

**Q.** What about the “Soybean plant response rating” value (soybean; [3]) of the same compound?
**A.** 100

**Q.** What about the “Plant response rating, Soybean” value (soybean) of the same compound?
**A.** 90
